Read-outs that look alike come from different tables or passages of the source.

The test system of data set [1] is Aβ secretion. The data set can be described thus: Secreted total Aβ ELISA in conditioned media of H4βAPP695 wt cells. In kind it is cell-based, human. The settings on record: for inhibition at 10 µM / inhibition at 30 µM: Homo sapiens, 24 h, H4βAPP695 wt cells; for inhibition at 30 µM: read-out: Total Aβ (% decrease) 30 μM Mean; for Aβ secretion inhibiting activity (structure activity summary): in words. The method, then: H4βAPP695 wt cells, a human […] cell line stably transfected with a wtβAPP695 expression vector construct under the control of a CMV promoter (kindly provided by Dr. Chris Eckman from Mayo Clinic, Florida) were cultured as previously described. Twenty-four hours before drug treatment, the media was replaced with serum-free media. Cells were then incubated with drugs (dissolved in DMSO) or vehicle for 24 h for collection of conditioned media and cell lysates. For the PKC inhibitors experiment, three inhibitors were treated 30 min prior to drug challenge. Primary cortical neurons were prepared from embryonic day 18 APP and presenilin 1 (APPswe, PSEN1dE9) transgenic mice on the C57BL/6 genetic background (Jackson Laboratories, strain no. 5864) as previously described. THLE-3 human hepatoma cells (from ATCC) were plated in 24-well plates that were precoated with 10 μg/mL bovine serum albumin, 10 μg/mL fibronectin, and 30 μg/mL bovine type I collagen. The cells were grown in BEGM media (Clonetics) until confluent and treated with drugs at 20 μM for 24 h. This conditioned media was harvested, diluted 1:1 in serum-free medium, and incubated with H4βAPP695 wt cells for 24 h prior to analysis of secreted Aβ, which was compared to the effect of 10 μM drug treatments without prior incubation with the THLE-3 cells. Caco-2 cells (ATCC) were plated in 12-well plates with Transwell inserts (Costar) at 70000 cells per well and grown for 21 days. The media volume of the apical and basal chambers was 0.5 and 1.5 mL, respectively. Transepithelial resistance was measured in each well and found to be >160 Ω/cm^2. Drugs at 40 μM and 20 μg/mL of lucifer yellow were added in serum-free medium to the apical chamber. Four hours later, the basal chamber media was harvested and used to measure lucifer yellow fluorescence to confirm monolayer integrity as well as for treatment of H4βAPP695 wt cells for 24 h prior to analysis of secreted Aβ, which was compared to the effect of direct addition of 10 μM of the corresponding drug.

The subject of data set [2] is H4βAPP695 wt cells. The data set can be described thus: Cytotoxicity by total cell protein content (BCA) of H4βAPP695 wt cells. The settings on record: cytotoxicity.
The mark [3] stands for this setting: relative to vehicle treated control cells, read-out: % β Decrease.
The mark [4] stands for this setting: read-out: Total Aβ (% decrease) 10 μM Mean.

Regarding `O=C(NCCSCc1ccc(Cl)cc1)c1ccc(Cl)cc1Cl` [Compound 2], the inhibition at 10 µM in data set [1] (setting [3]) amounted to 5.3%.
Still for that read-out and setting: with `O=C(NCCSCc1cccc(Cl)c1)c1ccccc1Cl` [Compound 3] the figure was 4.7%; with `O=C(NCCCCNC(=O)c1ccccc1Br)c1ccccc1Br` [Compound 4], 7.9%.
Still for that read-out and setting: with `O=C(NCCSCc1ccc(Cl)c(Cl)c1)c1ccccc1Cl` [Compound 5] the figure was 0.7%.
Same read-out and setting: with `O=C(NCCSCc1ccc(Cl)c(Cl)c1)c1ccc(Cl)cc1Cl` [Compound 6] the figure was 4.3%; with `COCCCNC(=O)c1c(Cl)cccc1Cl` [Compound 8], 6.9%.
As to `O=C(NCCNC(=O)c1c(Cl)cccc1Cl)c1c(Cl)cccc1Cl` [Compound 13], the inhibition at 10 µM in data set [1] (setting [3]) is 7.6%.
On the same count and under the same terms, for `O=C(NCCSCc1ccccc1Cl)c1ccccc1Cl` [Compound 16] the value was 4%; for `O=C(NCCSCc1ccc(Cl)cc1)c1ccccc1Cl` [Compound 17], -12%.
The same measure, in the same setting: for `O=C(NCCSCc1ccc(F)cc1)c1c(F)cccc1Cl` [Compound 22] the value was 27.3%; for `Oc1c(Cl)cc(Cl)cc1/C=N/CCSCc1ccccc1Cl` [Compound 23], 5.3%; for `O=C(NCCS(=O)(=O)Cc1ccc(F)cc1)c1c(F)cccc1Cl` [Compound 24], 39.2%.
As to `O=C(NCCCCNC(=O)c1ccccc1F)c1ccccc1F` [Compound 25], the inhibition at 10 µM in data set [1] (setting [3]) was determined as 0.2%.
`COc1ccc(CSCCNC(=O)c2c(Cl)cccc2Cl)cc1` [Compound 26, 2,6-Dichloro-N-[2-(4-methoxy-benzylsulfanyl)-ethyl]-benzamide]: the melting point is 80 to 81 °C. Besides, the inhibition at 10 µM in data set [1] (setting [4]) came to 1.6%. In addition, in data set [1], the inhibition at 30 µM came out at 1.1% and the “Aβ secretion inhibiting activity (structure activity summary)” value (shortened to “Aβ secretion inhibiting activity”) is “loss of activity”. In data set [2], the “Cell protein (% decrease) 10 μM Mean” value is reported as 6.7% and the “Cell protein (% decrease) 30 μM Mean” value worked out at 12.7%.
For `O=C(NCCSCc1ccc(O)cc1)c1c(Cl)cccc1Cl` [Compound 28, 2,6-Dichloro-N-[2-(4-hydroxy-benzylsulfanyl)-ethyl]-benzamide], the melting point was in the range of 138 to 140 °C. Moreover, the inhibition at 10 µM in data set [1] (setting [4]) amounted to 13.1%. Moreover, in data set [1], the inhibition at 30 µM is 56.7% and the “Aβ secretion inhibiting activity” value was “loss of activity”. Further, in data set [2], the “Cell protein (% decrease) 10 μM Mean” value was 8.7% and the “Cell protein (% decrease) 30 μM Mean” value is reported as 4.4%.
Take `COc1cccc(CS(=O)(=O)CCNC(=O)c2c(Cl)cccc2Cl)c1` [Compound 30, 2,6-dichloro-N-[2-(3-methoxy-phenylmethanesulfonyl)-ethyl]-benzamide]: in data set [1] (setting [4]), the inhibition at 10 µM was determined as 5.3%. For the same molecule, in data set [1], the inhibition at 30 µM stood at 4.9% and the “Aβ secretion inhibiting activity” value is listed as “No tested substitutions in the linker region were well tolerated”. In addition, in data set [2], the “Cell protein (% decrease) 10 μM Mean” value came to 1.2% and the “Cell protein (% decrease) 30 μM Mean” value stood at 8.9%.
With `O=C(NCCS(=O)(=O)Cc1cccc(O)c1)c1c(Cl)cccc1Cl` [Compound 31, 2,6-Dichloro-N-[2-(3-hydroxy-phenylmethanesulfonyl)-ethyl]-benzamide], the melting point is 139 to 141 °C. Besides, in data set [1] (setting [4]), the inhibition at 10 µM was -10.1%. In data set [1], the inhibition at 30 µM is 9.6% and the “Aβ secretion inhibiting activity” value is listed as “No tested substitutions in the linker region were well tolerated”. Besides, in data set [2], the “Cell protein (% decrease) 10 μM Mean” value is reported as 7.7% and the “Cell protein (% decrease) 30 μM Mean” value was 4.4%.
As to `COc1cccc(C[S+]([O-])CCNC(=O)c2c(Cl)cccc2Cl)c1` (centres unmarked) [Compound 32, 2,6-dichloro-N-[2-(3-methoxy-phenylmethanesulfinyl)-ethyl]-benzamide], the inhibition at 10 µM in data set [1] (setting [4]) is -13.6%. For the same molecule, in data set [1], the inhibition at 30 µM is -15.8% and the “Aβ secretion inhibiting activity” value is listed as “No tested substitutions in the linker region were well tolerated”. In data set [2], the “Cell protein (% decrease) 10 μM Mean” value came out at 1.6% and the “Cell protein (% decrease) 30 μM Mean” value is 9.2%.
In the case of `O=C(NCC[S+]([O-])Cc1cccc(O)c1)c1c(Cl)cccc1Cl` (centres unmarked) [Compound 33, 2,6-Dichloro-N-[2-(3-hydroxy-phenylmethanesulfinyl)-ethyl]-benzamide], the melting point was in the range of 165 to 166 °C. The inhibition at 10 µM in data set [1] (setting [4]) was -23.7%. For the same molecule, in data set [1], the inhibition at 30 µM was found to be 15.9% and the “Aβ secretion inhibiting activity” value is “No tested substitutions in the linker region were well tolerated”. In addition, in data set [2], the “Cell protein (% decrease) 10 μM Mean” value came out at 2.8% and the “Cell protein (% decrease) 30 μM Mean” value was 4.4%.
Take `N=C(NO)c1cccc(CSCCNC(=O)c2c(Cl)cccc2Cl)c1` [Compound 39, 2,6-Dichloro-N-(2-[3-(N-hydroxycarbamimidoyl)-benzylsulfanyl]-ethyl)-benzamide]: in data set [1] (setting [4]), the inhibition at 10 µM is -1.5%. For the same molecule, in data set [1], the inhibition at 30 µM is 1.6% and the “Aβ secretion inhibiting activity” value is listed as “did not yield good activity”. In data set [2], the “Cell protein (% decrease) 10 μM Mean” value worked out at 9.2% and the “Cell protein (% decrease) 30 μM Mean” value came out at 5.9%.
The corresponding values for `Clc1cccc(CSCCNCc2c(Cl)cccc2Cl)c1` [Compound 57, [2-(3-Chloro-benzylsulfanyl)-ethyl]-(2,6-dichloro-benzyl)-amine] are 45.2%, 45.6%, “No tested substitutions in the linker region were well tolerated”, −3.6% and 6.6%.
The corresponding values for `O=C(NCCSCc1cccc(O)c1O)c1c(Cl)cccc1Cl` [Compound 58, 2,6-Dichloro-N-[2-(2,3-dihydroxy-benzylsulfanyl)-ethyl]-benzamide] are -4.3%, 33.1%, “lost activity”, −4.8% and 14%.
The corresponding values for `NC(=O)c1c(Cl)cccc1CSCC(=O)c1c(Cl)cccc1Cl` [Compound 61, 2-Chloro-6-((2-(2,6-dichlorophenyl)-2-oxoethylthio)methyl)benzamide] are 44.7%, 49.7%, “could be tolerated”, 2.5% and −5.6%.
Turning to `O=C(NCCSCc1ccccc1)c1ccccc1` [Compound 64, N-(2-Benzylsulfanyl-ethyl)-benzamide], the inhibition at 10 µM in data set [1] (setting [4]) was -5.7%. Further, the inhibition at 30 µM in data set [1] was determined as 5.5%. In addition, in data set [2], the “Cell protein (% decrease) 10 μM Mean” value was 0.7% and the “Cell protein (% decrease) 30 μM Mean” value is listed as −4.1%.
For the molecule `O=C(NCCSCc1cccc(OCCOCCO)c1)c1c(Cl)cccc1Cl` [Compound 70, 2,6-Dichloro-N-(2-(3-[2-(2-hydroxy-ethoxy)-ethoxy]-benzylsulfanyl)-ethyl)-benzamide], in data set [1] (setting [4]), the inhibition at 10 µM came to 17.4%. In data set [1], the inhibition at 30 µM stood at 24.3% and the “Aβ secretion inhibiting activity” value is recorded as “did not yield good activity”. In data set [2], the “Cell protein (% decrease) 10 μM Mean” value is recorded as −7.3% and the “Cell protein (% decrease) 30 μM Mean” value came out at 6.1%.
The corresponding values for `Cc1cccc(C)c1C(=O)NCCSCc1cccc(Cl)c1` [Compound 75, N-[2-(3-chloro-benzylsulfanyl)-ethyl]-2,6-dimethyl-benzamide] are 29.5%, 51.6%, “not well tolerated”, 0.9% and −9.4%.
With `O=C(Cc1c(Cl)cccc1Cl)NCCSCc1cccc(Cl)c1` [Compound 78, N-[2-(3-chloro-benzylsulfanyl)-ethyl]-2-(2,6-dichloro-phenyl)-acetamide], in data set [1] (setting [4]), the inhibition at 10 µM was determined as 6.7%. Further, in data set [1], the inhibition at 30 µM worked out at 13.5% and the “Aβ secretion inhibiting activity” value is recorded as “No tested substitutions in the linker region were well tolerated”. In data set [2], the “Cell protein (% decrease) 10 μM Mean” value is −1.3% and the “Cell protein (% decrease) 30 μM Mean” value was “−.07%”.

(Values after patent US20130158112A1, “COMPOSITIONS AND METHODS FOR INHIBITING BETA AMYLOID SECRETION” (priority 2011, published 2013).)
